How the values were obtained:
[1] = system: Phospholipase C (Bacillus cereus); experiment: Compound was evaluated for its […] activity against phospholipase C from Bacillus cereus
[2] = system: Phospholipase C (Bacillus cereus); experiment: Critical Micellar Concentration for the compound was calculated for phospholipase C from Bacillus cereus

SMILES: CCCCCC(=O)OCC(COP(=O)([O-])OCC[N+](C)(C)C)OC(=O)CCCCC (stereo not drawn)
- k cat [1]: 1000 s⁻¹

SMILES: CCCCCC(=O)OCC(COP(=O)(O)OCCC(C)(C)C)OC(=O)CCCCC (stereo not drawn)
- CMC [2]: 9.5 mM
- k cat [1]: 5.2 s⁻¹
